According to PMC6756013, “B591, a novel specific pan-PI3K inhibitor, preferentially targets cancer stem cells” (Oncogene, 2019):

Assays:
[1] = test system: lung metastasis of 4T1 cells; test: Breast cancer metastasis study; assay type: in vivo, NOD/SCID mice; conditions: 8 mg/kg intraperitoneally once a day
Procedure: Studies implicated that the process termed EMT is associated with features of CSCs, which are considered to be involved in metastasis, a major cause of cancer-associated deaths. 4T1 murine mammary carcinoma cells spontaneously produce highly metastatic tumors that can metastasize to the lung, liver, lymph nodes, and brain while the primary tumor is growing in situ. To determine the efficacy of B591 on tumor metastasis, the metastasis model was established by incubating 4T1 cells into the mammary gland of NOD/SCID mice and treated with 8 mg/kg of B591 intraperitoneally once a day. B591 decreased more than 50% of the metastatic tumors in the lung which spontaneously metastasize from the primary tumor in the mammary gland (Fig. 6a).
To establish the metastasis model, 3 × 10^5 of 4T1 cells were incubated into the mammary fat pad of NOD/SCID mice. When tumor volume reached about 50 mm^3, mice were randomly divided into two groups for treatment with 8 mg/kg of B591 or vehicle (i.p.) for 2 months. The metastatic tumors in lung were stained with ink as previously reported.

[2] = test system: ALDHhigh fractions in SUM-159PT cells; test: ALDH activity assay (ALDEFLUOR); assay type: cell-based; conditions: 4 µM
Procedure: (§1) Cells were treated with B591 for 24 h, then the cell suspension was incubated with 20 μl of CD44-APC (#559942, BD Pharmingen, Franklin Lakes, NJ, USA) and 20 μl of CD24-PE (#555428, BD Pharmingen) antibodies for 30 min in dark at 4 ℃. Phenotype was detected by BD FACSCalibur, and data was analyzed with Flowjo. ALDH activity was analyzed with ALDEFLUOR Kit (STEMCELL Technologies, Vancouver, BC, Canada) according to the manufacture’s protocol.

[3] = test system: primary tumor cells dissociated from MDA-MB-231 xenografts replanted into NOD/SCID mice; test: Limiting dilution assay of cells from treated MDA-MB-231 xenografts; assay type: in vivo; conditions: for number of tumor-bearing mice (number of recipient mice): cells from 16 mg/kg group, 3 months later
Procedure: Fig. 5 B591 abolishes tumor growth in vivo by eliminating CSCs. a MDA-MB-231 xenografts were treated with vehicle or B591 for 2 weeks, then the residual tumor tissue was harvested and dissociated into single cells for subsequent CSCs assays according with the flow chart. b–d Tumor weight and mice body weight were measured every 2 days during treatment. In the end of treatment, tumor tissues were collected and weighted (n = 8). e The CSCs markers of tumor cells were analyzed by flow cytometry. Only the live and non-mouse cell population was gated and analyzed. Data from three mice were plotted. f Mammosphere formation assay was carried out with the single cells. The relative mammosphere-formation ability is shown as percentage, and data represent mean ± SD. g The single cells from vehicle and 16 mg/kg of B591 group were replanted into NOD/SCID mice according to the indicating number, and 3 months later, tumors were counted for calculating the tumor-initiating frequency. h The CSCs markers and the downstream substrates of PI3K pathway were analyzed using the lysates from the primary xenografts by western blot analysis. ^**p < 0.01, difference versus vehicle-treated control group TEXT PRINTED IN THE PICTURE: (G) B591: 3(5) (Cell number: 200 000); 2(5) (Cell number: 20 000); 0(5) (Cell number: 2 000); 0(5) (Cell number: 200); TIF: 1/145 000
The primary tumor cells dissociated from xenografts were injected into the mammary fat pad of NOD/SCID mice in limiting dilutions.
In MDA-MB-231 xenografts experiment, 1 × 10^6 cells were incubated into the mammary fat pad of mice orthotopically. When the volume of tumor reached above 50 mm^3, the mice were randomly divided into three groups for introperitoneal (i.p.) injection with vehicle, 4 mg/kg and 16 mg/kg B591. The tumor volume and the body weight of mice were measured during the 2-weeks treatment. In the end of treatment, the mice were killed, and the tumor tissues were dissected and dissociated into single cell suspension with Dispase II (Roche, Basel, Switzerland) according with the manufacture’s protocol. Then these single cells were used for CSCs phenotype assay, ALDH activity assay, mammosphere formation assay and limiting dilution assay in vivo as described above.

MDA-MB-231 cells = test: Cell cycle analysis; assay type: cell-based, human; conditions: 24 h
Procedure: MDA-MB-231 cells were seeded in six-well plates at a density of 4×10^5 cells per well. The next day, cells were treated with B591 (0, 2.5, 5, 10 μM) for 24 h. Then the cells were trypsinized, centrifuged at 300 g for 5 minutes and fixed in 1 ml of 70 % cold ethanol. After incubation at -20℃ overnight, the cells were collected by centrifugation at 500 g for 5 min and pellets were resuspended in 500 μl PBS containing 300 μg/ml of RNase (Sigma, MO, USA). After incubation at 37 ℃ for 30 min, the pellets were stained with 100 μg/ml of propidium iodine (Sigma, MO, USA) for 20 min. Cell cycle distribution was determined by flow cytometry (FACScaliber, Becton Dickinson).

[4] = test system: CD44high/CD24low population in mammospheres from SUM-159PT cells; test: CSCs phenotype assay (CD44/CD24 flow cytometry); assay type: cell-based; conditions: 4 µM
Procedure: as §1

[5] = test system: PI3K/Akt/mTORC1 and mTORC2 signaling in multiple cancer cell lines; test: Western blot of PI3K downstream effectors in multiple tumor cell lines; assay type: cell-based; conditions: 5 h
Procedure: Fig. 2 B591 inhibits PI3K/Akt pathway in multiple cancer cell lines. a Representative images of Akt1 redistribution in IGF-1-treated cells in the absence or presence of B591. Scale bar represents 10 μm. Arrows indicate IGF-1-mediated membrane translocation detected by the image analysis algorithm. b Inhibition of mTORC1 and mTORC2 signaling in multiple cancer cell lines, exposed for 5 h to increasing concentrations of B591. c HepG2 cells were treated with DMSO or 20 μM of B591 for 5 h. Immunofluorescence (red) intensity reflects eIF4E subcellular distribution. Cells were visualized with high content reader. Representative images are shown, and scale bar represents 50 μm. d Nuclear-to-cytoplasmic ratio of eIF4E in five cancer cell lines was determined via high content reader. e The phosphorylation of AKT and ERK was determined by immunoblotting in RD cells in the presence of 10 μM of B591 after indicated time of exposure. f Inhibition of the phosphorylation of AKT and ERK in RD cells treated with B591, PI-103 or Rapamycin for 24 h was determined by immunoblotting
The key effectors downstream of PI3K were examined by western blot analysis in multiple tumor cell lines with different genetic background. […] Most recent study identified PtdIns(3,4,5)P3, which is generated by activated PI3K, as a direct upstream activator for mTORC2, highlighting the critical role of PI3K in mTORC2 activation. Therefore, the effect of B591 on mTORC2 signaling was evaluated by testing the phosphorylation levels of Akt at Ser473 and its substrate GSK3β at Ser9.

With `Cc1cc2c(cc1C)[n+](Cc1ccccc1Br)cn2Cc1ccc2c(c1)CCO2.[Br-]` [B591, 3-(2-bromobenzyl)-1-((2,3-dihydrobenzofuran-5-yl)methyl) -5,6-dimethyl-1H-benzo[d]imidazol-3-ium bromide] the “Decrease of metastatic tumors in the lung” value [1] was “more than 50%”, the “Reduction of ALDHhigh fractions” value [2] was 90% and the “number of tumor-bearing mice (number of recipient mice)” value (“number of tumor-bearing mice” below) ([3]; cell number 2 000) was 0(5). The “number of tumor-bearing mice” value ([3]; cell number 20 000) was 2(5), the “number of tumor-bearing mice” value ([3]; cell number 200 000) was 3(5) and the “number of tumor-bearing mice” value ([3]; cell number 200) was 0(5). For the same compound, the “Reduction of tumor-initiating frequency versus vehicle” value ([3]; cells from B591-treated tumors) was “sevenfold reduction”, the Cell cycle distribution (MDA-MB-231 cells) was “effectively arrested cells in G0/G1 phase” and the “Decrease of CD44high/CD24low population” value [4] was 82%. For the same compound, the “PI3K/Akt/mTORC1 signaling (phosphorylation of 4E-BP1, S6K1, S6)” value [5] was “effectively inhibited PI3K/Akt/mTORC1 signaling”, the “mTORC2 signaling: p-Akt (Ser473) and p-GSK3β (Ser9)” value ([5]; all tested cell types) was “concentration-dependent decrease” and the “Phosphorylation of Akt at Thr308” value ([5]; increasing concentrations) was “potently inhibited”.
